# Data reported in article PMC5218480 (PLoS ONE, 2017).
# System: MV-4-11 cells
# Experiment: Gene expression microarray analysis (Affymetrix PrimeView) and GSEA
# Format: cell-based, human
# Design: RFU PODN (11730768_x_at) / Fold change /veh PODN (11730768_x_at) / RFU LINC00158 (11744669_a_at) / Fold change /veh LINC00158 (11744669_a_at) / RFU DUSP10 (11751237_a_at) / Fold change /veh DUSP10 (11751237_a_at) / RFU ID3 (11757404_x_at) / Fold change /veh ID3 (11757404_x_at) / RFU PLEKHG5 (11737974_s_at) / Fold change /veh PLEKHG5 (11737974_s_at) / RFU LRRC4B (11730491_at) / Fold change /veh LRRC4B (11730491_at) / RFU GIMAP4 (11747438_a_at) / Fold change /veh GIMAP4 (11747438_a_at) / RFU KRT8 (11758183_x_at) / Fold change /veh KRT8 (11758183_x_at) / RFU CNN1 (11734310_a_at) / Fold change /veh CNN1 (11734310_a_at) / RFU VPS37D (11726825_at) / Fold change /veh VPS37D (11726825_at) / RFU C10orf10 (11716522_x_at) / Fold change /veh C10orf10 (11716522_x_at) / RFU KIR2DL2 /// KIR2DL4 /// KIR2DL5A /// KIR2DL5B /// KIR2DS1 /// KIR2DS2 /// KIR2DS3 /// KIR2DS4 /// KIR3DL3 /// KIR3DL3 /// KIR3DS1 (11738374_at) / Fold change /veh KIR2DL2 /// KIR2DL4 /// KIR2DL5A /// KIR2DL5B /// KIR2DS1 /// KIR2DS2 /// KIR2DS3 /// KIR2DS4 /// KIR3DL3 /// KIR3DL3 /// KIR3DS1 (11738374_at) / RFU C1QL1 (11718748_at) / Fold change /veh C1QL1 (11718748_at) / RFU TMPRSS4 (11747572_a_at) / Fold change /veh TMPRSS4 (11747572_a_at) / RFU HAMP (11756126_x_at) / Fold change /veh HAMP (11756126_x_at) / RFU RNFT2 (11725882_a_at) / Fold change /veh RNFT2 (11725882_a_at) / RFU NR4A2 (11747474_a_at) / Fold change /veh NR4A2 (11747474_a_at) / RFU ABCC12 (11746883_a_at) / Fold change /veh ABCC12 (11746883_a_at) / RFU TMEM136 (11760407_x_at) / Fold change /veh TMEM136 (11760407_x_at) / RFU CLDN22 /// WWC2 (11732394_at) / Fold change /veh CLDN22 /// WWC2 (11732394_at) / RFU HLA-DPB1 (11760878_x_at) / Fold change /veh HLA-DPB1 (11760878_x_at) / RFU SPINT1 (11716480_a_at) / Fold change /veh SPINT1 (11716480_a_at) / RFU GAP43 (11754022_s_at) / Fold change /veh GAP43 (11754022_s_at) / RFU A4GNT (11735810_at) / Fold change /veh A4GNT (11735810_at) / RFU PRB3 (11715151_x_at) / Fold change /veh PRB3 (11715151_x_at) / RFU TUBB4B (11761932_at) / Fold change /veh TUBB4B (11761932_at) / RFU CAPN14 (11732068_a_at) / Fold change /veh CAPN14 (11732068_a_at) / RFU TMCC2 (11721928_a_at) / Fold change /veh TMCC2 (11721928_a_at) / RFU IRGQ (11745062_a_at) / Fold change /veh IRGQ (11745062_a_at) / RFU FAM174B (11720279_a_at) / Fold change /veh FAM174B (11720279_a_at) / RFU TMPRSS4 (11748680_a_at) / Fold change /veh TMPRSS4 (11748680_a_at) / RFU FAM212B (11763350_a_at) / Fold change /veh FAM212B (11763350_a_at) / RFU PLEKHG5 (11743358_a_at) / Fold change /veh PLEKHG5 (11743358_a_at) / RFU ZSCAN30 (11745921_a_at) / Fold change /veh ZSCAN30 (11745921_a_at) / RFU CMKLR1 (11741424_a_at) / Fold change /veh CMKLR1 (11741424_a_at) / RFU LOC101060620 /// MAPK8IP1 (11723275_at) / Fold change /veh LOC101060620 /// MAPK8IP1 (11723275_at) / RFU SPTSSB (11747773_x_at) / Fold change /veh SPTSSB (11747773_x_at) / RFU PRSS12 (11739890_at) / Fold change /veh PRSS12 (11739890_at) / RFU BIN1 (11741810_x_at) / Fold change /veh BIN1 (11741810_x_at) / RFU WNT11 (11732464_a_at) / Fold change /veh WNT11 (11732464_a_at) / RFU C10orf10 (11716521_a_at) / Fold change /veh C10orf10 (11716521_a_at) / RFU C5orf56 (11738089_at) / Fold change /veh C5orf56 (11738089_at) / RFU CYB561 (11721691_x_at) / Fold change /veh CYB561 (11721691_x_at) / RFU ANKRD19P (11752326_a_at) / Fold change /veh ANKRD19P (11752326_a_at) / RFU OR2T12 /// OR2T33 /// OR2T8 (11738714_s_at) / Fold change /veh OR2T12 /// OR2T33 /// OR2T8 (11738714_s_at) / RFU VCAN (11748164_a_at) / Fold change /veh VCAN (11748164_a_at) / RFU JSRP1 (11732532_at) / Fold change /veh JSRP1 (11732532_at) / RFU KRTAP10-11 (11738290_x_at) / Fold change /veh KRTAP10-11 (11738290_x_at) / RFU MYO3A (11730013_a_at) / Fold change /veh MYO3A (11730013_a_at) / RFU EBF3 (11725865_a_at) / Fold change /veh EBF3 (11725865_a_at) / RFU CAMK2N1 (11719241_x_at) / Fold change /veh CAMK2N1 (11719241_x_at) / RFU C5orf56 (11738088_a_at) / Fold change /veh C5orf56 (11738088_a_at) / RFU OLFML3 (11715873_a_at) / Fold change /veh OLFML3 (11715873_a_at) / RFU LOC100653217 /// NTM (11731650_a_at) / Fold change /veh LOC100653217 /// NTM (11731650_a_at) / RFU MAPK11 (11762145_a_at) / Fold change /veh MAPK11 (11762145_a_at) / RFU FIZ1 (11724087_x_at) / Fold change /veh FIZ1 (11724087_x_at) / RFU OASL (11726364_x_at) / Fold change /veh OASL (11726364_x_at) / RFU SOX15 (11748057_x_at) / Fold change /veh SOX15 (11748057_x_at) / RFU CD79A (11719716_a_at) / Fold change /veh CD79A (11719716_a_at) / RFU HIST1H1D (11736915_at) / Fold change /veh HIST1H1D (11736915_at) / RFU CASKIN2 (11723855_a_at) / Fold change /veh CASKIN2 (11723855_a_at) / RFU LOC730098 (11760151_x_at) / Fold change /veh LOC730098 (11760151_x_at) / RFU OR4N2 (11742367_at) / Fold change /veh OR4N2 (11742367_at) / RFU PRRT2 (11749266_a_at) / Fold change /veh PRRT2 (11749266_a_at) / RFU SNX32 (11753110_a_at) / Fold change /veh SNX32 (11753110_a_at) / RFU CDHR5 (11726645_a_at) / Fold change /veh CDHR5 (11726645_a_at) / RFU RCAN1 (11760418_a_at) / Fold change /veh RCAN1 (11760418_a_at) / RFU FAM167A (11723789_a_at) / Fold change /veh FAM167A (11723789_a_at) / RFU FAM26E (11764081_at) / Fold change /veh FAM26E (11764081_at) / RFU ISYNA1 (11749810_s_at) / Fold change /veh ISYNA1 (11749810_s_at) / RFU ACY1 (11761880_at) / Fold change /veh ACY1 (11761880_at) / RFU 11764098_at / Fold change /veh 11764098_at / RFU SAMD14 (11745864_x_at) / Fold change /veh SAMD14 (11745864_x_at) / RFU NPB (11741838_a_at) / Fold change /veh NPB (11741838_a_at) / RFU TMPRSS6 (11731388_a_at) / Fold change /veh TMPRSS6 (11731388_a_at) / RFU KRTAP10-2 (11738614_at) / Fold change /veh KRTAP10-2 (11738614_at) / RFU ARHGAP8 /// PRR5-ARHGAP8 (11727945_x_at) / Fold change /veh ARHGAP8 /// PRR5-ARHGAP8 (11727945_x_at) / RFU KRTAP5-7 /// NADSYN1 (11734609_at) / Fold change /veh KRTAP5-7 /// NADSYN1 (11734609_at) / RFU RASL12 (11751679_a_at) / Fold change /veh RASL12 (11751679_a_at) / RFU CDKN2B (11736163_a_at) / Fold change /veh CDKN2B (11736163_a_at) / RFU PRF1 (11729649_at) / Fold change /veh PRF1 (11729649_at) / RFU, ZNF638 /// ZNF638-IT1 / Fold change vs veh, ZNF638 /// ZNF638-IT1 / RFU, PANK3 / Fold change vs veh, PANK3 / RFU, SH3YL1 / Fold change vs veh, SH3YL1 / RFU, ZEB2 / Fold change vs veh, ZEB2 / RFU, NRIP1 / Fold change vs veh, NRIP1 / RFU, PTTG1IP / Fold change vs veh, PTTG1IP / RFU, CAPN2 / Fold change vs veh, CAPN2 / RFU, MED14 / Fold change vs veh, MED14 / RFU, SNORA58 / Fold change vs veh, SNORA58 / RFU, C1orf63 / Fold change vs veh, C1orf63 / RFU, LRRFIP1 / Fold change vs veh, LRRFIP1 / RFU, NDUFAF7 / Fold change vs veh, NDUFAF7 / RFU, SLC12A2 / Fold change vs veh, SLC12A2 / RFU, IBTK / Fold change vs veh, IBTK / RFU, ESF1 / Fold change vs veh, ESF1 / Fold change vs veh, TMEM50B / RFU, TAOK1 / Fold change vs veh, TAOK1 / RFU, ACBD3 / Fold change vs veh, ACBD3 / RFU, TMA16 / Fold change vs veh, TMA16 / RFU, RWDD3 / Fold change vs veh, RWDD3 / RFU, BCAT1 / Fold change vs veh, BCAT1 / RFU, EDEM3 / Fold change vs veh, EDEM3 / RFU, TMEM33 / Fold change vs veh, TMEM33 / RFU, WDR75 / Fold change vs veh, WDR75 / RFU, AHCTF1 / Fold change vs veh, AHCTF1 / RFU, TFRC / Fold change vs veh, TFRC / RFU, ZDHHC17 / Fold change vs veh, ZDHHC17 / RFU, NOM1 / Fold change vs veh, NOM1 / RFU, ARL8B / Fold change vs veh, ARL8B / RFU, ZBTB11 / Fold change vs veh, ZBTB11 / RFU, TAMM41 / Fold change vs veh, TAMM41 / RFU, KIAA1704 /// LOC100996395 / Fold change vs veh, KIAA1704 /// LOC100996395 / RFU, ING1 / Fold change vs veh, ING1 / RFU, TRMT61B / Fold change vs veh, TRMT61B / RFU, FUBP3 / Fold change vs veh, FUBP3 / RFU, TP53 / Fold change vs veh, TP53 / RFU, TNKS2 / Fold change vs veh, TNKS2 / RFU, ZFP14 / Fold change vs veh, ZFP14 / RFU, ACTR2 / Fold change vs veh, ACTR2 / RFU, PPP3R1 / Fold change vs veh, PPP3R1 / RFU, PIK3R1 / Fold change vs veh, PIK3R1 / RFU, HNRNPA1 / Fold change vs veh, HNRNPA1 / RFU, RNF170 / Fold change vs veh, RNF170 / RFU, ZNF28 / Fold change vs veh, ZNF28 / RFU, RNGTT / Fold change vs veh, RNGTT / RFU, OGT / Fold change vs veh, OGT / RFU, BRD1 / Fold change vs veh, BRD1 / RFU, MARS / Fold change vs veh, MARS / RFU, ZNF655 / Fold change vs veh, ZNF655 / RFU, FAHD1 / Fold change vs veh, FAHD1 / RFU, BDP1 / Fold change vs veh, BDP1 / RFU, LRRCC1 / Fold change vs veh, LRRCC1 / RFU, ARID1A / Fold change vs veh, ARID1A / RFU, ZNF146 / Fold change vs veh, ZNF146 / RFU, ZNF330 / Fold change vs veh, ZNF330 / RFU, GPN3 / Fold change vs veh, GPN3 / RFU, C9orf123 / Fold change vs veh, C9orf123 / RFU, N4BP2L2 / Fold change vs veh, N4BP2L2 / RFU, ARFIP1 / Fold change vs veh, ARFIP1 / RFU, FAM179B / Fold change vs veh, FAM179B / RFU, BCL10 / Fold change vs veh, BCL10 / RFU, UHRF1BP1L / Fold change vs veh, UHRF1BP1L / RFU, BET1 / Fold change vs veh, BET1 / RFU, CNOT2 / Fold change vs veh, CNOT2 / RFU, ZNF268 / Fold change vs veh, ZNF268 / Fold change vs veh, ZNF507 / RFU, DGCR2 / Fold change vs veh, DGCR2 / RFU, WDSUB1 / Fold change vs veh, WDSUB1 / Fold change vs veh, HSP90B1 /// MIR3652 / RFU, ADSS / Fold change vs veh, ADSS / RFU, GK / Fold change vs veh, GK / RFU, ZNF148 / Fold change vs veh, ZNF148 / RFU, TAF9 / Fold change vs veh, TAF9 / RFU, SLC1A5 / Fold change vs veh, SLC1A5 / RFU, SLMO2 / Fold change vs veh, SLMO2 / RFU, ABCC4 / Fold change vs veh, ABCC4 / RFU, LOC101060439 /// RAP1B / Fold change vs veh, LOC101060439 /// RAP1B / RFU, RFX7 / Fold change vs veh, RFX7 / RFU, GTPBP10 / Fold change vs veh, GTPBP10 / RFU, CNEP1R1 / Fold change vs veh, CNEP1R1 / RFU, BIVM-ERCC5 /// ERCC5 / Fold change vs veh, BIVM-ERCC5 /// ERCC5 / RFU, ILF3 / Fold change vs veh, ILF3 / RFU 11762660_at / Fold change /veh 11762660_at / RFU VCAN (11757783_s_at) / Fold change /veh VCAN (11757783_s_at) / RFU DDX43 (11728927_at) / Fold change /veh DDX43 (11728927_at) / RFU KRT8 (11758188_x_at) / Fold change /veh KRT8 (11758188_x_at) / RFU NKD1 (11759106_at) / Fold change /veh NKD1 (11759106_at) / RFU SRD5A1 (11742802_a_at) / Fold change /veh SRD5A1 (11742802_a_at) / RFU TPSAB1 /// TPSB2 (11721975_s_at) / Fold change /veh TPSAB1 /// TPSB2 (11721975_s_at) / RFU GSTM3 (11746129_a_at) / Fold change /veh GSTM3 (11746129_a_at) / RFU IL23R (11737362_x_at) / Fold change /veh IL23R (11737362_x_at) / RFU TMEM51 (11727254_a_at) / Fold change /veh TMEM51 (11727254_a_at) / RFU PIWIL2 (11732686_x_at) / Fold change /veh PIWIL2 (11732686_x_at) / RFU ORM1 (11744905_x_at) / Fold change /veh ORM1 (11744905_x_at) / RFU CCDC152 (11743942_at) / Fold change /veh CCDC152 (11743942_at) / RFU ECM1 (11717891_a_at) / Fold change /veh ECM1 (11717891_a_at) / RFU IL23R (11748794_a_at) / Fold change /veh IL23R (11748794_a_at) / RFU TNFAIP8L3 (11732012_x_at) / Fold change /veh TNFAIP8L3 (11732012_x_at) / RFU MBOAT4 (11741988_at) / Fold change /veh MBOAT4 (11741988_at) / RFU 11764193_at / Fold change /veh 11764193_at / RFU TMEM53 (11763286_at) / Fold change /veh TMEM53 (11763286_at) / RFU MAGEB2 (11727129_at) / Fold change /veh MAGEB2 (11727129_at) / RFU TMEM200A (11744735_a_at) / Fold change /veh TMEM200A (11744735_a_at) / RFU CCDC152 (11751479_a_at) / Fold change /veh CCDC152 (11751479_a_at) / RFU FAM211A (11726209_a_at) / Fold change /veh FAM211A (11726209_a_at) / RFU RGS16 (11746705_a_at) / Fold change /veh RGS16 (11746705_a_at) / RFU VCAN (11755009_s_at) / Fold change /veh VCAN (11755009_s_at) / RFU RHOB (11743442_s_at) / Fold change /veh RHOB (11743442_s_at) / RFU RGS16 (11720943_a_at) / Fold change /veh RGS16 (11720943_a_at) / RFU RGS16 (11720944_at) / Fold change /veh RGS16 (11720944_at) / RFU, VPS4B / Fold change vs veh, VPS4B / RFU, CREB1 / Fold change vs veh, CREB1 / RFU, DNAJC13 / Fold change vs veh, DNAJC13 / RFU, GNAQ / Fold change vs veh, GNAQ / RFU, CDK5R1 / Fold change vs veh, CDK5R1 / RFU, ZRANB3 / Fold change vs veh, ZRANB3 / RFU, CUL4A / Fold change vs veh, CUL4A / RFU, CCNY / Fold change vs veh, CCNY / RFU, UFL1 / Fold change vs veh, UFL1 / RFU, COG3 / Fold change vs veh, COG3 / RFU, DIAPH2 / Fold change vs veh, DIAPH2 / RFU, SKA2 / Fold change vs veh, SKA2 / RFU, AFF3 / Fold change vs veh, AFF3 / RFU, LMF1 / Fold change vs veh, LMF1 / RFU, IPO11 / Fold change vs veh, IPO11 / RFU, DFFB / Fold change vs veh, DFFB / RFU, FOXP1 / Fold change vs veh, FOXP1 / RFU, CARD8 / Fold change vs veh, CARD8 / RFU, STRN3 / Fold change vs veh, STRN3 / RFU, ADK / Fold change vs veh, ADK / RFU, RASSF2 / Fold change vs veh, RASSF2 / RFU, WIPF1 / Fold change vs veh, WIPF1 / RFU, LARP1B / Fold change vs veh, LARP1B / RFU, RASA1 / Fold change vs veh, RASA1 / RFU, RB1 / Fold change vs veh, RB1 / RFU, PPFIA1 / Fold change vs veh, PPFIA1 / RFU, MAT2A / Fold change vs veh, MAT2A / RFU, CCT5 / Fold change vs veh, CCT5 / RFU, WDR92 / Fold change vs veh, WDR92 / RFU, CUX1 / Fold change vs veh, CUX1 / RFU, TTC7A / Fold change vs veh, TTC7A / RFU, TMEM135 / Fold change vs veh, TMEM135 / RFU, DEPTOR / Fold change vs veh, DEPTOR / RFU, CPM / Fold change vs veh, CPM / RFU, DNAJB6 / Fold change vs veh, DNAJB6 / RFU, CACNA2D3 / Fold change vs veh, CACNA2D3 / RFU, DTX4 / Fold change vs veh, DTX4 / RFU, TFCP2 / Fold change vs veh, TFCP2 / RFU, GMCL1 /// GMCL1P1 / Fold change vs veh, GMCL1 /// GMCL1P1 / RFU, AEBP2 / Fold change vs veh, AEBP2 / RFU, SNHG1 /// SNORD22 /// SNORD25 /// SNORD26 /// SNORD27 /// SNORD28 /// SNORD29 /// SNORD31 / Fold change vs veh, SNHG1 /// SNORD22 /// SNORD25 /// SNORD26 /// SNORD27 /// SNORD28 /// SNORD29 /// SNORD31 / Fold change (Aza/veh), C12orf56 (ProbeSet 11735607_a_at) / Fold change (ACY-1035/veh), C12orf56 (ProbeSet 11735607_a_at) / Fold change (Aza/veh), FGFR1OP (ProbeSet 11751329_s_at) / Fold change (ACY-1035/veh), FGFR1OP (ProbeSet 11751329_s_at) / Fold change (Aza/veh), VPS36 (ProbeSet 11739960_a_at) / Fold change (ACY-1035/veh), VPS36 (ProbeSet 11739960_a_at) / RFU SYPL1 (11715823_x_at) / Fold change /veh SYPL1 (11715823_x_at) / RFU IGFBP7 (11715501_s_at) / Fold change /veh IGFBP7 (11715501_s_at) / RFU REEP3 (11722064_at) / Fold change /veh REEP3 (11722064_at) / RFU IGLL1 (11728026_x_at) / Fold change /veh IGLL1 (11728026_x_at): dose or concentration left out as unconfirmed
# Settings: MV-4-11 cells, 48 hours
smiles,measurement,value
Nc1ccc(-c2cccs2)cc1NC(=O)c1ccc2c(c1)cc(C1CC1)n2CCN1CCOCC1 [ACY-1035],RFU 11762660_at,11.56 RFU
